Experimental findings from the Kinase Knowledgebase extract (Sharma et al. 2016) are described below.

In test [1] the target is PIK3CA (human) (UniProt P42336). Description: Inhibition of PIK3CA Kinase Activity.
The target in test [2] is PIK3CG (human) (UniProt P48736). Description: Inhibition of PIK3CG Kinase Activity.
PIK3CG (human), sequence (P48736 whole entry, looked up): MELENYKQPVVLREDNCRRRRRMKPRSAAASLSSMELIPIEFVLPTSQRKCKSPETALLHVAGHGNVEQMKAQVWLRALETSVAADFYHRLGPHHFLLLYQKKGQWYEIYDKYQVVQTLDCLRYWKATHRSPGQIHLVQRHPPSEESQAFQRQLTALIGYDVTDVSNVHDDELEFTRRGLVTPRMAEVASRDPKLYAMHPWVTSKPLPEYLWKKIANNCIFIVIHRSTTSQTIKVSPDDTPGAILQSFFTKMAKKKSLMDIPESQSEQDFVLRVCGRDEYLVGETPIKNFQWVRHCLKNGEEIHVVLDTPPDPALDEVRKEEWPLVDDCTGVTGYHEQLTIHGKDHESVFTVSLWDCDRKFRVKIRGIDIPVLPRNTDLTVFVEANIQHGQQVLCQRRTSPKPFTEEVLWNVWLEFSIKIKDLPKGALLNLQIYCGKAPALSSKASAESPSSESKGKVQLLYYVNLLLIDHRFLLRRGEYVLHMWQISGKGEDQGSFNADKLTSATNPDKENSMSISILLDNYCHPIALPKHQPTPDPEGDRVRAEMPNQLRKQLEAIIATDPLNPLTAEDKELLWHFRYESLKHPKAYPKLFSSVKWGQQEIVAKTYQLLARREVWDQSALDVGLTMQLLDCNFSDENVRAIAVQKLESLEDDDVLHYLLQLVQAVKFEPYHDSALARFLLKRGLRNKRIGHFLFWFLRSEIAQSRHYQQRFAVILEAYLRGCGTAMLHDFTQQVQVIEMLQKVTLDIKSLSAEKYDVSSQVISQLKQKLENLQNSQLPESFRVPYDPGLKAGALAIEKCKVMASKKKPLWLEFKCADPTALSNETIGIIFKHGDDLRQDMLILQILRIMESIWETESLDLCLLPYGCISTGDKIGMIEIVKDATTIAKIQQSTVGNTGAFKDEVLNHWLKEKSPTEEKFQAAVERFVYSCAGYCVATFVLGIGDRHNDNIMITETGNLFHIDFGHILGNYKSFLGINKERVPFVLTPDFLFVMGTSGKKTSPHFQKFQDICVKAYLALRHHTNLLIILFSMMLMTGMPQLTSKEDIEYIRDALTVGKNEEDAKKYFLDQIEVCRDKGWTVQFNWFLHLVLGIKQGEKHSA

PIK3CA (human), sequence (P42336 whole entry, looked up): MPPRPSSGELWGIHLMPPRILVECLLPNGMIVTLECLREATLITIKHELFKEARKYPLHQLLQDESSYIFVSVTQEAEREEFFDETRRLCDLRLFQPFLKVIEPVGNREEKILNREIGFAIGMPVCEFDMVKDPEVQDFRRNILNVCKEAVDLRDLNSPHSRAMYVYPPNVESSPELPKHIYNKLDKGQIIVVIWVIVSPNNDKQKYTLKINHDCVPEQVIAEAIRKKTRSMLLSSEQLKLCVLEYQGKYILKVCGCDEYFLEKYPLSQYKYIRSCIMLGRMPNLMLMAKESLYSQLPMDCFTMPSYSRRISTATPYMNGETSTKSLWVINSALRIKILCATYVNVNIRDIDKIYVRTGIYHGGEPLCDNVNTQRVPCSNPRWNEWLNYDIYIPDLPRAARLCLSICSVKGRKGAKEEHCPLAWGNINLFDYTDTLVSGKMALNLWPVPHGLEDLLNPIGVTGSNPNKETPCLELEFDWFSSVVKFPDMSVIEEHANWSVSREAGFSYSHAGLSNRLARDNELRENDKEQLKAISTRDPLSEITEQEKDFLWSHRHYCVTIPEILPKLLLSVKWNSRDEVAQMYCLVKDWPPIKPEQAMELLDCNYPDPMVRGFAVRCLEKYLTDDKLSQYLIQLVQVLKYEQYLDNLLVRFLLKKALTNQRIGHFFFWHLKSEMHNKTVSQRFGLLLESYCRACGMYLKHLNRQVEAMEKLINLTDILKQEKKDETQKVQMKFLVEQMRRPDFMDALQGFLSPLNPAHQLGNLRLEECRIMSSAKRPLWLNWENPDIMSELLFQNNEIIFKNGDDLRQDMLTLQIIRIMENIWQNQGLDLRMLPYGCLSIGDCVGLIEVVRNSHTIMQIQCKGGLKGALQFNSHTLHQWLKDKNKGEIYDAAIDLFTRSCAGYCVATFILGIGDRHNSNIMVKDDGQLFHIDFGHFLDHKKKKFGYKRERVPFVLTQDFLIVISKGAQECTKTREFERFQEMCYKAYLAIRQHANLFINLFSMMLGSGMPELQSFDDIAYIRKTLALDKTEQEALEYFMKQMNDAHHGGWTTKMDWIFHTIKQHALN

As for `CCn1nnc2c(N3CCOCC3)nc(-c3ccc(NC(=O)Nc4ccc(NC(=O)N5CCN(C)CC5)cc4)cc3)nc21`, the half-maximal inhibitory concentration (IC50) came out at 586 nM in test [1] and 1.85 nM in test [2].
Turning to `CCn1nnc2c(N3CCOCC3)nc(-c3ccc(NC(=O)Nc4ccc(NCc5cccnc5)cc4)cc3)nc21`, the values for the IC50 in test [1] and in test [2] were 552 nM and 3.3 nM, respectively.
For the molecule `CCn1nnc2c(N3CCOCC3)nc(-c3ccc(NC(=O)Nc4ccc(NC(=O)c5cccc(N(C)C)c5)cc4)cc3)nc21`, the IC50 was 607 nM in test [1] and 1.83 nM in test [2].
On the same counts, the results for `CCn1nnc2c(N3CCOCC3)nc(-c3ccc(NC(=O)Nc4ccc(N)cc4)cc3)nc21` are 460 nM and 7.33 nM.
`CCn1nnc2c(N3CCOCC3)nc(-c3ccc(NC(=O)Nc4ccc(NCc5ccncc5)cc4)cc3)nc21` showed an IC50 in test [1] of 552 nM.
Consider `CCn1nnc2c(N3CCOC[C@@H]3C)nc(-c3ccc(NC(=O)Nc4ccc(C(=O)N(C)CCN(C)C)cc4)cc3)nc21`, for which the IC50 in test [1] is 587 nM; in test [2], 2.2 nM.
As for `CCn1nnc2c(N3CCOCC3)nc(-c3ccc(NC(=O)Nc4ccc(NC(=O)NCCN5CCCC5)cc4)cc3)nc21`, the IC50 was found to be 601 nM in test [1] and 1.7 nM in test [2].
`CCn1nnc2c(N3CCOCC3)nc(-c3ccc(NC(=O)Nc4ccc(C(=O)Nc5cccnc5)cc4)cc3)nc21`: the IC50 in test [1] came out at 565 nM; in test [2] it was 1.85 nM.
Regarding `CCn1nnc2c(N3CCOCC3)nc(-c3ccc(NC(=O)Nc4ccc(NC(=O)N5CCOCC5)cc4)cc3)nc21`, in test [1], the IC50 came to 573 nM.
In the case of `O=C(Nc1ccncc1)Nc1ccc(-c2nc(N3CCOCC3)c3nnn(CCO)c3n2)cc1`, the IC50 in test [1] came out at 5.3 nM; in test [2], 20 nM.
On the same counts, the results for `CCn1nnc2c(N3CCOCC3)nc(-c3ccc(NC(=O)Nc4ccc(NC(=O)NC5CCN(C)CC5)cc4)cc3)nc21` are 601 nM and 1.7 nM.
In test [1], `CCn1nnc2c(N3CCOC[C@@H]3C)nc(-c3ccc(NC(=O)Nc4ccc(C(=O)NCCN5CCCC5)cc4)cc3)nc21` returned an IC50 of 599 nM.
With `CCn1nnc2c(N3CCOCC3)nc(-c3ccc(NC(=O)Nc4ccc(NC(=O)c5ccncc5)cc4)cc3)nc21`, the figures for the IC50 in test [1] and in test [2] were 565 nM and 1.85 nM, respectively.
As to `CN(C)CCNC(=O)c1ccc(NC(=O)Nc2ccc(-c3nc(N4CCOCC4)c4nnn(-c5cccc(C(N)=O)c5)c4n3)cc2)cc1`, the half-maximal inhibitory concentration (IC50) in test [1] came out at 650 nM; in test [2], 0.8 nM.
Regarding `CCn1nnc2c(N3CCOCC3)nc(-c3ccc(NC(=O)Nc4ccc(NCc5ccc(OC)nc5)cc4)cc3)nc21`, the IC50 in test [1] amounted to 581 nM.
Molecule `CCn1nnc2c(N3CCOC[C@@H]3C)nc(-c3ccc(NC(=O)Nc4ccc(C(=O)N5CCC(N(C)C)CC5)cc4)cc3)nc21` displayed an IC50 in test [1] of 613 nM.
Regarding `CC(C)n1nnc2c(N3CCOCC3)nc(-c3ccc(NC(=O)Nc4ccc([N+](=O)[O-])cc4)cc3)nc21`, in test [1], the IC50 was 504 nM.
In the case of `CCn1nnc2c(N3CCOCC3)nc(-c3ccc(NC(=O)Nc4ccc(NC(=O)N5CCCN(C)CC5)cc4)cc3)nc21`, the values for the IC50 in test [1] and in test [2] were 600 nM and 1.65 nM, respectively.
`CC(C)n1nnc2c(N3CCOCC3)nc(-c3ccc(NC(=O)Nc4ccc(NS(C)(=O)=O)cc4)cc3)nc21` showed an IC50 in test [1] of 552 nM.
With `CN(C)CCNC(=O)c1ccc(NC(=O)Nc2ccc(-c3nc(N4CCOCC4)c4nnn(-c5cccc(C(=O)O)c5)c4n3)cc2)cc1`, the IC50 turned out to be 651 nM in test [1] and 0.95 nM in test [2].
On the same counts, the results for `CCn1nnc2c(N3CCOCC3)nc(-c3ccc(NC(=O)Nc4ccc(C(=O)NN(C)C)cc4)cc3)nc21` are 531 nM and 8 nM.
Regarding `CCn1nnc2c(N3CCOCC3)nc(-c3ccc(NC(=O)Nc4ccc(C(=O)N5CCN(C)CC5)nc4)cc3)nc21`, the IC50 in test [1] was 572 nM.
The same measure, in the same setting: under `CCn1nnc2c(N3CCOCC3)nc(-c3ccc(NC(=O)Nc4ccc([N+](=O)[O-])cc4)cc3)nc21` stands 490 nM.
For `CCn1nnc2c(N3CCOCC3)nc(-c3ccc(NC(=O)Nc4ccc(CN5CCN(C)CC5)cc4)cc3)nc21`, the IC50 in test [1] was 557 nM; in test [2], 1.35 nM.
On to `CCn1nnc2c(N3CCOCC3)nc(-c3ccc(NC(=O)Nc4ccc(NC(=O)NCCN(C)C)cc4)cc3)nc21`, for which the IC50 in test [1] worked out at 574 nM; in test [2], 1.65 nM.
On to `CCn1nnc2c(N3CCOCC3)nc(-c3ccc(NC(=O)Nc4ccc(NC(=O)NCc5ccccn5)cc4)cc3)nc21`, for which the IC50 in test [1] came to 594 nM; in test [2], 3.3 nM.
`CCn1nnc2c(N3CCOCC3)nc(-c3ccc(NC(=O)Nc4ccc(C(=O)OC)nc4)cc3)nc21` had an IC50 in test [1] of 504 nM.
Same read-out and setting: for `CC(C)n1nnc2c(N3CCOCC3)nc(-c3ccc(NC(=O)Nc4ccc(N)cc4)cc3)nc21` the value was 473 nM.
In the case of `CCn1nnc2c(N3CCOC[C@@H]3C)nc(-c3ccc(NC(=O)Nc4ccc(C(=O)NCCN(C)C)cc4)cc3)nc21`, the IC50 in test [1] came out at 573 nM; in test [2], 1.85 nM.
On the same counts, the results for `Oc1cccc(-c2nc(N3CCOCC3)c3nnn(CCCCN4CCN(Cc5ccccc5)CC4)c3n2)c1` are 116 nM and 216 nM.
In test [1], `CC(C)n1nnc2c(N3CCOCC3)nc(-c3ccc(NC(=O)Nc4ccc(C(=O)N5CCN(C)CC5)cc4)cc3)nc21` showed a concentration for half-maximal inhibition (IC50) of 585 nM.
With `CCn1nnc2c(N3CCOCC3)nc(-c3ccc(NC(=O)Nc4ccc(NC(=O)N5CCC(N(C)C)CC5)cc4)cc3)nc21`, the half-maximal inhibitory concentration (IC50) in test [1] was found to be 614 nM; in test [2] it was 1.45 nM.
`CCN1CCN(C(=O)Nc2ccc(NC(=O)Nc3ccc(-c4nc(N5CCOCC5)c5nnn(CC)c5n4)cc3)cc2)CC1`: the results for the IC50 in test [1] and in test [2] were 600 nM and 0.9 nM, respectively.
As for `CCn1nnc2c(N3CCOCC3)nc(-c3ccc(NC(=O)Nc4ccc(NC(=O)NCCOC)cc4)cc3)nc21`, the IC50 in test [1] was found to be 561 nM.
The same measure, in the same setting: for `CCn1nnc2c(N3CCOCC3)nc(-c3ccc(NC(=O)Nc4ccc(NCc5ccc(F)nc5)cc4)cc3)nc21` the value was 569 nM; for `CCn1nnc2c(N3CCOC[C@@H]3C)nc(-c3ccc(NC(=O)Nc4ccc(C(=O)NCCN5CCCCC5)cc4)cc3)nc21`, 613 nM.
With `CCn1nnc2c(N3CCOCC3)nc(-c3ccc(NC(=O)Nc4ccc(NC(=O)N5CCC(N6CCCC6)CC5)cc4)cc3)nc21`, the IC50 in test [1] turned out to be 640 nM; in test [2] it was 0.75 nM.
On the same counts, the results for `CCn1nnc2c(N3CCOCC3)nc(-c3ccc(NC(=O)Nc4ccc(NC(=O)CN(C)C)cc4)cc3)nc21` are 574 nM and 1.33 nM.
`CCn1nnc2c(N3CCOCC3)nc(-c3ccc(NC(=O)Nc4ccc(NC(=O)N(C)CCN(C)C)cc4)cc3)nc21`: the IC50 turned out to be 588 nM in test [1] and 1.65 nM in test [2].
For the molecule `CCn1nnc2c(N3CCOCC3)nc(-c3ccc(NC(=O)Nc4ccc(NC(=O)N5CCNCC5)cc4)cc3)nc21`, the concentration for half-maximal inhibition (IC50) in test [1] came out at 573 nM; in test [2], 1.7 nM.
For the molecule `Oc1cccc(-c2nc(N3CCOCC3)c3nnn(C4CCN(Cc5ccc[nH]5)CC4)c3n2)c1`, the figures for the IC50 in test [1] and in test [2] were 62 nM and 426 nM, respectively.
Take `CCn1nnc2c(N3CCOCC3)nc(-c3ccc(NC(=O)Nc4ccc(N5CCN(C)CC5)cc4)cc3)nc21`: the IC50 in test [1] was determined as 543 nM.
In the case of `CCn1nnc2c(N3CCOCC3)nc(-c3ccc(NC(=O)Nc4ccc(NC(=O)NCCN5CCN(C)CC5)cc4)cc3)nc21`, the IC50 came out at 629 nM in test [1] and 1.8 nM in test [2].
As for `CC(C)(C)OC(=O)N1CC(n2nnc3c(N4CCOCC4)nc(-c4ccc(NC(=O)Nc5ccccc5)cc4)nc32)C1`, the IC50 in test [1] was 58 nM; in test [2] it was 790 nM.
For the molecule `CCn1nnc2c(N3CCOC[C@@H]3C)nc(-c3ccc(NC(=O)Nc4ccc(C(=O)N5CCN(C)CC5)cc4)cc3)nc21`, the figures for the IC50 in test [1] and in test [2] were 585 nM and 2.15 nM, respectively.
In the case of `CCn1nnc2c(N3CCOCC3)nc(-c3ccc(NC(=O)Nc4ccc(C(=O)O)nc4)cc3)nc21`, the half-maximal inhibitory concentration (IC50) in test [1] came out at 490 nM; in test [2], 3.3 nM.
Turning to `CC(C)n1nnc2c(N3CCOCC3)nc(-c3ccc(NC(=O)Nc4ccc(N5CCN(C)CC5)cc4)cc3)nc21`, the IC50 in test [1] stood at 558 nM.
For the molecule `CCn1nnc2c(N3CCOCC3)nc(-c3ccc(NC(=O)Nc4ccc(C(=O)N(C)CCN(C)C)nc4)cc3)nc21`, the figures for the IC50 in test [1] and in test [2] were 560 nM and 1.85 nM, respectively.
Take `CC(C)n1nnc2c(N3CCOCC3)nc(-c3ccc(NC(=O)Nc4ccc(C(=O)NCCN(C)C)cc4)cc3)nc21`: the IC50 in test [1] was 572 nM; in test [2] it was 2 nM.
